This note sets out measurements from patent US8834840B1, “Magnetic resonance imaging of self-assembled biomaterial scaffolds” (Northwestern University, priority 2006, dated 2014).

The assay is described as follows: T1 measurements / MR imaging of PA gels at 9.4 T. The class given is physicochemical. As to conditions: gel of 0.75 wt. % filler PA 1, agent mixed in at 0.1 mM Gd(III) (1 alone without Gd(III)), spin-echo. The procedure:
FIG. 4 depicts results of T1 study of PA gels and mixed PA gels. The concentration of Gd(III) is 0.1 mM in all samples except a and the concentration of filler PA is […] in each case (all samples form self-supporting gels): a corresponds to compound 1 alone and is used as a standard, b refers to 1 mixed with DTPA, c refers to 1 mixed with compound 2, d refers to 1 mixed with compound 3, e through j are mixed with compound 3 and their structures are depicted above. Error bars represent one standard deviation.
Mixing PACAs 2 or 3 with filler PA 1 could be successfully imaged by MR (FIG. 3). The gels are homogeneous in image intensity throughout the samples, which implies uniform mixing of the PACA molecules within the filler PA at MR resolution. If heterogeneous mixing of PAs occur on a large enough scale, domains of bright and dark intensity would be observed. […] The gels were made using a 0.75 wt. % of filler PA. The PACA molecule was mixed into this solution before gelling as was the DTPA. Images were acquired using a spin-echo pulse sequence with TR 750 ms, TC 12 ms, slice thickness of 1 mm, FOV of 2 cm, at 9.4 T on an Oxford superconducting magnet and Bruker software. The T1 of these gels were measured at 3.03±0.05 s, 1.89±0.06 s, 1.08±0.06 s, and 2.81±0.05 s, respectively, the faster T1's resulting in higher contrast.
T1 Measurements. […]

On to `O=C(O)CN(CCN(CC(=O)O)CC(=O)O)CCN(CC(=O)O)CC(=O)O` [DTPA, diethylenetriaminepentaacetate], for which the T1 of gels was 2.81 ± 0.05 s.
